Measured values published in patent US20230372382A1, “USE OF ADENOSINE DIPHOSPHATE RIBOSE FOR ADJUVANT THERAPY WITH RADIATION AND/OR ANTI-CANCER TREATMENT” (PearlsInMires Co., Ltd., priority 2021, published 2023).

Legend:
Format in all cases: cell-based
[1] = system: human colon fibroblast (CCD-18Co); test: Toxicity in normal cells (MTT assay); details: ADP-ribose 25, 50, 100 ul, 24, 48 and 72 hours
Method: (§1) As normal cells, human colon fibroblast (CCD-18Co) and human dermal papilla cell (HDPC) cells were used. […] Then, the cells were divided into a total of 4 groups: ADP-ribose untreated group (Untreated), and treated groups (treated with increased concentrations of 25, 50, 100 ul). Cell viability was compared by MTT assay after 24, 48, and 72 hours of drug treatment.

[2] = system: human dermal papilla cell (HDPC); test: Toxicity in normal cells (MTT assay); details: ADP-ribose 25, 50, 100 ul, 24, 48 and 72 hours
Method: as §1

MDA-MB-231 cells = test: ADP-ribose quantitative analysis (ELISA) in cancer cells; details: 16 μM ADP-ribose, 24 hours, P<0.001
Method: After culturing, the culture medium was removed, the cells were washed with phosphate-buffered saline, and then RIPA buffer was added and the cells were left on ice for 20 minutes. After scraping the cells, the cells were put in a centrifuge tube and centrifuged for 10 minutes at 10,000 g and 4° C. The supernatant was obtained, and 1% SDS was added, and then the reaction product was boiled at 100° C. for 5 minutes and cooled on ice. The supernatant was centrifuged again at 10,000 g and 4° C. for 10 minutes to obtain the final supernatant, and ADP-ribose was quantitatively analyzed and compared using an ELISA analysis kit (Cell Biolabs, Inc., San Diego, CA, USA).
5×10^5 MDA-MB-231 cells were divided into the untreated group and 16 μM ADP-ribose-treated group and cultured in Leibovitz's L-15 medium supplemented with 10% fetal calf serum+100 units/ml penicillin+100 μg/ml streptomycin under conditions of 37° C. and 5% CO2 for 24 hours. The medium of the cultured cells was removed, and the supernatant prepared by treatment with RIPA buffer and 1% sodium dodecyl sulfate (SDS) was used for ELISA analysis to detect and analyze ADP-ribose.

[3] = system: Breast cancer (MDA-MB-231) cells; test: Cell death by combination treatment with anti-cancer drug (MTT); details: Homo sapiens, MDA-MB-231, 24 h
Method: 3×10^3 Brain cancer (U-87MG), lung cancer (H1975), pancreatic cancer (Aspc-1), liver cancer (Hep G2), breast cancer (MDA-MB-231), and colon cancer (HCT116) cells were cultured in a 96-well plate for 24 hours under conditions of 37° C. and 5% Ca2, respectively. […] After the treatment was terminated, the cells were cultured for 24 hours under conditions of 37° C. and 5% CO2 again, 10 μl of 3-(4,5-dimethylthiazol-2-yl)-2,5-diphenyltetrazolium bromide reagent was added to each well and reacted for 1 hour. After the reaction was completed, the reagent was removed, 200 μl of dimethyl sulfoxide was added to each well, and the absorbance was measured to compare the degree of cell death.
Then, 10 μl of 3-(4,5-dimethylthiazol-2-yl)-2,5-diphenyltetrazolium bromide reagent was added to each well and reacted for 1 hour. After the reaction was completed, the reagent was removed, 200 μl of dimethyl sulfoxide was added to each well, and the absorbance was measured to confirm cell viability.

Compound: Nc1ncnc2c1ncn2[C@@H]1O[C@H](COP(=O)(O)OP(=O)(O)OC[C@H]2O[C@@H](O)C(O)C2O)C(O)C1O (stereo partly shown) [ADP-ribose, adenosine diphosphate ribose]
- toxicity to normal cells (cell viability, MTT assay) [1]: no toxicity was observed
- toxicity to normal cells (cell viability, MTT assay) [2]: no toxicity was observed
- amount of ADP-ribose in cells compared to the control group (MDA-MB-231 cells): remarkably increased significantly
- viability at 3.2 µM [3]: ~20%
